ChEMBL document CHEMBL5543130, “Design, Synthesis, and In Vivo Evaluation of Isosteviol Derivatives as New SIRT3 Activators with Highly Potent Cardioprotective Effects” (J Med Chem, 2024)
Activity calls are given as the source filed them. No cut-off for these calls is given here.

Legend:
Danio rerio [1] = test: Cardioprotective activity against doxorubicin-induced Zebrafish cardiomyopathy model assessed as survival rate at 1 uM fertilized for 24 hrs followed by compound administration for 72 hrs and measured at 96 hrs post fertilization by inverted fluorescence microscopic analysis; format: functional
[2] = Toxicity in zebrafish embryos assessed as survival at upto 40 uM fertilized for 24 hrs followed by compound administration for 72 hrs and measured at 96 hrs post fertilization; design: species or system Danio rerio; conditions: in vivo
Danio rerio [3] = test: Cardioprotective activity against doxorubicin-induced Tg(cmlc2: GFP) Zebrafish assessed as […] at 1 uM measured at 72 hrs post fertilization; format: functional, organism-based
Danio rerio [4] = organism: Danio rerio; test: Cardioprotective activity against doxorubicin-induced Tg(cmlc2: GFP) Zebrafish assessed as restoration of normal heart structure at 1 uM measured at 72 hrs post fertilization; format: functional, organism-based
Danio rerio [5] = organism: Danio rerio; test: Cardioprotective activity against doxorubicin-induced Tg(cmlc2: GFP) Zebrafish assessed as reduction in cTnT mRNA level measured at 72 hrs post fertilization by qPCR analysis; format: functional, organism-based; conditions: dose <= 5.0 µM
Danio rerio [6] = organism: Danio rerio; test: Cardioprotective activity against doxorubicin-induced Tg(cmlc2: GFP) Zebrafish assessed as reduction in Anp mRNA level measured at 72 hrs post fertilization by qPCR analysis; format: functional, organism-based; conditions: dose <= 5.0 µM
Danio rerio [7] = organism: Danio rerio; test: Cardioprotective activity against doxorubicin-induced Tg(cmlc2: GFP) Zebrafish assessed as reduction in Bnp mRNA level measured at 72 hrs post fertilization by qPCR analysis; format: functional, organism-based
[8] = Water solubility of the compound measured for 24 hrs by HPLC analysis; format: physicochemical
[9] = Toxicity in Tg(cmlc2: GFP) Zebrafish assessed as mortality at 450 uM measured at 72 hrs post fertilization; design: species or system Danio rerio; conditions: in vivo
Mus musculus [10] = test: Cardioprotective activity against doxorubicin-induced C57BL/6 mouse cardiomyopathy model assessed as increase in heart weight to tibia length ratio at 2.5 mg/kg, ip administered for 7 days by Echocardiography analysis; format: functional; conditions: time 7 day
Mus musculus [11] = test: Cardioprotective activity against doxorubicin-induced C57BL/6 mouse cardiomyopathy model assessed as increase in ejection fraction at 2.5 mg/kg, ip administered for 7 days by Echocardiography analysis; format: functional; conditions: time 7 day
Mus musculus [12] = test: Cardioprotective activity against doxorubicin-induced C57BL/6 mouse cardiomyopathy model assessed as increase in fractional shortening at 2.5 mg/kg, ip administered for 7 days by Echocardiography analysis; format: functional; conditions: time 7 day
Mus musculus [13] = test: Cardioprotective activity against doxorubicin-induced C57BL/6 mouse cardiomyopathy model assessed as increase in cardiac output at 2.5 mg/kg, ip administered for 7 days by Echocardiography analysis; format: functional; conditions: time 7 day

Structure (SMILES)	survival at 1 µM (Danio rerio [1]) [%]	Activity [2]	Activity (Danio rerio [3])	Activity (Danio rerio [4])	Activity (Danio rerio [5])	Activity (Danio rerio [6])	Activity (Danio rerio [7])	solubility at 24 h [8] [mg/mL]	Activity [9]	Ratio (Mus musculus [10]) [mg/mm]	Activity (Mus musculus [11]) [%]	Activity (Mus musculus [12]) [%]	Activity (Mus musculus [13]) [%]
Cc1ccc(C(=O)O)c(C(=O)N2CCN(C(=O)[C@]3(C)CCC[C@@]4(C)[C@@H]5CC[C@@]6(C)C[C@]5(CC[C@@H]43)CC6=O)CC2)c1	90	Non-Toxic	Active	Active	Dose-Dependent Effect	Dose-Dependent Effect	Dose-Dependent Effect						
C[C@@]12CC[C@@H]3[C@@](CC[C@H]4[C@@]3(C)CCC[C@@]4(C)C(=O)N3CCN(C(=O)c4ccccc4C(=O)[O-])CC3)(CC1=O)C2.[Na+]								54	Non-Toxic	6.3	59.8	31.3	10
